# Measurements as given in US10888547B2, “Amorphous and a crystalline form of genz 112638 hemitartrate as inhibitor of glucosylceramide synthase” (Genzyme Corporation, priority 2009, dated 2021).
# Read-outs that look alike come from different tables or passages of the source.
# Experiments:
# GM1 in K562 cells = assay: Flow cytometry of cell surface GM1 in intact cells; assay type: cell-based; conditions: for IC50: Homo sapiens
# From the text: Since […] the first and rate-limiting step in the biosynthesis of glycosphingolipids, a flow cytometry assay that measured cell surface levels of GM 1 and GM3 was used to indirectly assess the activity of the inhibitor in intact cells.
# lactase = molecular target: T1, lactase (Rattus norvegicus, UniProt Q02401); assay: Intestinal glycosidase assay in rat tissue homogenates; assay type: biochemical; conditions: concentrations up to 2500 μM
# T1 construct: The intestinal glycosidase enzymes were assayed in rat tissue homogenates; from tissue; host or cells: rat intestinal tissue homogenate
# T1 sequence (Q02401 868-1928): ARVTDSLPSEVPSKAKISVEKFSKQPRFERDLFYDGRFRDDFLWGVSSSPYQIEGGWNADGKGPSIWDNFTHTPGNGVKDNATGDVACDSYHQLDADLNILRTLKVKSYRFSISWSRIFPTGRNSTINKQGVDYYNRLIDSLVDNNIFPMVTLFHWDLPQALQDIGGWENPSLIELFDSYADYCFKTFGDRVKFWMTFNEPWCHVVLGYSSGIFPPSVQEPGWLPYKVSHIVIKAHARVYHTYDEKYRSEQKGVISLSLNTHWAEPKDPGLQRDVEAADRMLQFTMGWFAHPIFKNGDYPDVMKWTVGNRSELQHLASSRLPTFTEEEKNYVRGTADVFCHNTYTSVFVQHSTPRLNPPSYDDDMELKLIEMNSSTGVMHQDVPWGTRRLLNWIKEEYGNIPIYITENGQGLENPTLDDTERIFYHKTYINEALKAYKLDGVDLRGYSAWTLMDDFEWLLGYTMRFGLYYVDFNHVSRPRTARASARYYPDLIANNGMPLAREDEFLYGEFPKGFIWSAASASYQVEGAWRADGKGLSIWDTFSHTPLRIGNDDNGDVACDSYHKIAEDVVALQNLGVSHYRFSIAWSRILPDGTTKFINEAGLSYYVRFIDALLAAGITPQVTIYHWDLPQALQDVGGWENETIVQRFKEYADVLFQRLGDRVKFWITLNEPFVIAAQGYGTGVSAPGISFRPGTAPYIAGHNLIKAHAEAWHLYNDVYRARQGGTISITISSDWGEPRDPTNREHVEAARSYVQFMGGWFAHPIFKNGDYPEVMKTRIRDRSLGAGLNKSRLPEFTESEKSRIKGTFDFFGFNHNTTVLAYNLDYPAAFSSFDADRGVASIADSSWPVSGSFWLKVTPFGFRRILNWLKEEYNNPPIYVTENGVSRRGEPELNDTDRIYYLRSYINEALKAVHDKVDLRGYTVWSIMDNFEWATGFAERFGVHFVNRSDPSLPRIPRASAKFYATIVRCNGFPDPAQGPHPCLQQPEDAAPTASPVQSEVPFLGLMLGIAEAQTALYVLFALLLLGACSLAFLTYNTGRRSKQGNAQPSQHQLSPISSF
# Method: (§1) The specificity of Formula (I) Hemitartrate was evaluated in a series of in vitro cell-based and cell-free assays. The intestinal glycosidase enzymes were assayed in rat tissue homogenates (see U. Andersson, et al., Biochem. Pharm. 59 (2000) 821-829, the entire teachings of which are incorporated herein by reference), and the glycogen debranching enzyme was assayed in a cell free assay as described (see U. Andersson, et al., Biochem. Pharm. 67 (2004) 697-705, the entire teachings of which are incorporated herein by reference).
# maltase = assay: as above; assay type: biochemical
# Method: as §1
# sucrase = molecular target: T2, sucrase (Rattus norvegicus, UniProt P23739); assay: as above; assay type: biochemical
# T2 construct: The intestinal glycosidase enzymes were assayed in rat tissue homogenates; from tissue; host or cells: rat intestinal tissue homogenate
# T2 sequence (P23739 whole entry): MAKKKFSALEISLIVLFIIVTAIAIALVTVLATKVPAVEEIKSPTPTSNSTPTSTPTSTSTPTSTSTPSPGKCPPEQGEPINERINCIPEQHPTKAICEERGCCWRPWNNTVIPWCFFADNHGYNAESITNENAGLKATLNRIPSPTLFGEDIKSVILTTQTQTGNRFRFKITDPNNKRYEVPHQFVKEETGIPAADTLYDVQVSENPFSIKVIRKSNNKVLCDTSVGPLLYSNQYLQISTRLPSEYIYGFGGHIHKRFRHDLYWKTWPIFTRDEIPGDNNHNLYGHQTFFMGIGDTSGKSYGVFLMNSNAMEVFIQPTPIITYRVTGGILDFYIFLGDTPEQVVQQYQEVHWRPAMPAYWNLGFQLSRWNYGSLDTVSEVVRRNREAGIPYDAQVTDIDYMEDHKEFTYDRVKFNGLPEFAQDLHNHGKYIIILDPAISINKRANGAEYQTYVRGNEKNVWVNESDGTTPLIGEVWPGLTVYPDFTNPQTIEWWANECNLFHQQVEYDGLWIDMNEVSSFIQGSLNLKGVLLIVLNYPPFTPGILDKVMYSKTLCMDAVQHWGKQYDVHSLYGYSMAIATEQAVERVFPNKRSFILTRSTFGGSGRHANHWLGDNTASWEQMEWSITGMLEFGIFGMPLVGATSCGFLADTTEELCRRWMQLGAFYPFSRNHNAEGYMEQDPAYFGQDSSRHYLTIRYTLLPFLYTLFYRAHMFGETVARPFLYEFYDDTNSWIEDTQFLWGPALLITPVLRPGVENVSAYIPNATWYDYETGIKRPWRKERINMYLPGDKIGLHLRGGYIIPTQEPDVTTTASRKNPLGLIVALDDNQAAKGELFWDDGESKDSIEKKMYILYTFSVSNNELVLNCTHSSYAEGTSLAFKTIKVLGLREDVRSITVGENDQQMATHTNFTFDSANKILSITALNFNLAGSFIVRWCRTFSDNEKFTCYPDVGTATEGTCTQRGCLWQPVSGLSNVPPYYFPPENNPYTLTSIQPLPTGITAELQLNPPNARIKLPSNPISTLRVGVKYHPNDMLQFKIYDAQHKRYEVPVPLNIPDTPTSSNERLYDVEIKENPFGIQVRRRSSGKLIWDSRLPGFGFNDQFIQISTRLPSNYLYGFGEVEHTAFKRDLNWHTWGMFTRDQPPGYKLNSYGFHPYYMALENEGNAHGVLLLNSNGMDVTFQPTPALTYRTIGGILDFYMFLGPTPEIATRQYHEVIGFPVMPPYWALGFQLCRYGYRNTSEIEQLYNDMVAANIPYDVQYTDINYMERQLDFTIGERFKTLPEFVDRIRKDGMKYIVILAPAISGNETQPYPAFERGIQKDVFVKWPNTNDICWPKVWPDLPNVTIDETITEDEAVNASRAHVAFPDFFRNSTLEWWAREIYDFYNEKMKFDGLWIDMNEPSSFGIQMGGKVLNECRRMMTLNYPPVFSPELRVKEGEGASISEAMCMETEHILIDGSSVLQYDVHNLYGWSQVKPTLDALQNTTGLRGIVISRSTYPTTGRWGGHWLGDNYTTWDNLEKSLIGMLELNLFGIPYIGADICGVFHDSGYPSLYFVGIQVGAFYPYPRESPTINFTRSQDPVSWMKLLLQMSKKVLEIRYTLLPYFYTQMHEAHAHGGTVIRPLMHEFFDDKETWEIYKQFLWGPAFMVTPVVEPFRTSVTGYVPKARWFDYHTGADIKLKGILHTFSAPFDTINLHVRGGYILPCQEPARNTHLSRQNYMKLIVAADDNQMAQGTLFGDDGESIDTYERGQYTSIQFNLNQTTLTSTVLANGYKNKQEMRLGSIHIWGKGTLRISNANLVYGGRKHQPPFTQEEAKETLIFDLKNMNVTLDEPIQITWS
# Method: as §1
# α-glucosidase I and II = assay: α-Glucosidase I and II specificity assay; assay type: biochemical
# Fabry mice = assay: Monotherapy of Fabry mice, drug in diet; assay type: in vivo, mouse; conditions: 300 mg/kg per day in diet, 11 months
# Method: For the monotherapy studies, Fabry mice were put on study at 1 month old (prevention model). Treatment groups received Formula (I) Hemitartrate (Genzyme Corp., Cambridge, Mass.) as a component of the pellet food diet. The drug was formulated at 0.15% (w/w) in standard 5053 mouse chow (TestDiet, Richmond, Ind.) and provided ad libitum.
# Quantitation of GL-3 was by Tandem Mass Spectrometry essentially as for GL-1.
# Hot plate Assay was performed as described previously (Ziegler, R J et al. Molec. Ther. 15(3), 492-500 (2007).
# SRT was evaluated in a mouse model of Fabry disease, which is caused by a deficiency of α-galactosidase A activity. Therapy with Formula (I) Hemitartrate started with one month-old Fabry mice and continued until the mice reached one year of age. […] Behavioral tests (i.e., hot-plate assay) and biochemical tests (i.e., urinalysis and GL-3 level analysis in tissues/blood/urine) of the mice were performed bimonthly.
# D409V/null mice = assay: Oral gavage efficacy study in Gaucher D409V/null mice; assay type: in vivo, mouse
# [1] = Drug interaction study with ketoconazole (CYP3A4 and p-glycoprotein inhibitor) in healthy subjects; assay type: in vivo, human; conditions: 100 mg twice daily with ketoconazole 400 mg once daily
# [2] = mouse, in vivo, po, 150 mg/kg/day
compound,measurement,setting,value
CCCCCCCC(=O)N[C@H](CN1CCCC1)[C@H](O)c1ccc2c(c1)OCCO2 [Formula (I) Hemitartrate],IC50,"GM1 in K562 cells; K562 cells, 72 h incubation, printed range 14-34 nM, read-out: mean IC50 for inhibiting the cell surface presentation of GM1",0.024 µM
same,IC50,"GM1 in K562 cells; Table 8, GM1 in K562 cells, read-out: Substrate inhibition potency (in vitro IC50)",~0.024 µM
same,cellular toxicity,"GM1 in K562 cells; K562 cells, up to the highest dose (0.6-1000 nM), 72 h",No overt cellular toxicity
same,inhibition of lactase,lactase,No detectable inhibition
same,inhibition of maltase,maltase; concentrations up to 2500 μM,No detectable inhibition
same,Ki,"maltase; read-out: Enzyme specificities, Ki: Maltase inhibition",> 10 µM
same,inhibition of sucrase,sucrase; concentrations up to 2500 μM,No detectable inhibition
same,Ki,"sucrase; read-out: Enzyme specificities, Ki: Sucrase inhibition",> 10 µM
same,inhibition of α-glucosidase I and II,α-glucosidase I and II; concentrations up to 2500 μM,No detectable inhibition
same,IC50,"α-glucosidase I and II; read-out: Enzyme specificities, IC50: α-Glucosidase I and II",> 2500 µM
same,presentation of insensitivity to an aversive heat stimulus (hot-plate assay),Fabry mice,later presentation
same,"urinalysis factors (urine volume, creatinine and sodium levels)",Fabry mice,prevention of deterioration
same,gastro-intestinal issues,D409V/null mice; effective dose of 150 mg/kg/day,no observable gastro-intestinal issues
same,glucosylceramide levels versus age-matched vehicle-treated controls,"D409V/null mice; mouse, in vivo",dose-dependent reduction
same,body weight versus untreated mice,D409V/null mice; [2],no significant deviation
same,effects on well-being or feeding habits,D409V/null mice; [2],no notable effects
same,frequency of Gaucher cells in the liver versus untreated mice,D409V/null mice; [2],significantly lower
same,"glucosylceramide levels in liver, % lower than in vehicle-treated mice",D409V/null mice; [2],60%
same,"glucosylceramide levels in liver, lung and spleen versus start of the study",D409V/null mice; [2],had not increased
same,"glucosylceramide levels in lung, % lower than in vehicle-treated mice",D409V/null mice; [2],50%
same,"glucosylceramide levels in spleen, % lower than in vehicle-treated mice",D409V/null mice; [2],40%
same,"glucosylceramide levels in the liver, % of those in the controls",D409V/null mice; [2],60%
same,"glucosylceramide levels in the lung, % of those in the controls",D409V/null mice; [2],40%
same,"glucosylceramide levels in the spleen, % of those in the controls",D409V/null mice; [2],75%
same,increase in exposure of the free base in plasma at steady state with ketoconazole,[1],4 fold
